Like-named read-outs stand apart in the source and are kept apart here.

One series concerns HIV-1SKI. In words: Single cycle analysis of HIV-1 cDNA, CEM-SS cells. The class given is cell-based. The settings on record: 10- to 100-fold over IC50.
The target of series [1] is T1, HIV-1 integrase catalytic core IN50-212 (Human immunodeficiency virus type 1 group M subtype B, UniProt P12497).
T1 construct: purchased gift of Drs; T. Jenkins and R. Craigie, NIDDK, NIH (not bought)
In words: Disintegration assay, IN50-212. The class given is biochemical. The settings on record: IN50-212, 3 μM.

For series [2], the target named is recombinant HIV-1 integrase (wild-type) (Human immunodeficiency virus type 1 group M subtype B, UniProt P12497). The experiment in a line: HIV-1 integrase 3′-processing and strand transfer assays. The class given is biochemical. The arrangement: Purified recombinant HIV-1 integrase enzyme (wild-type) was a generous gift from Dr. R. Craigie; purchased gift of Dr. R. Craigie, Laboratory of Molecular Biology, NIDDK (not bought).

[3] abbreviates: 3′-processing, read-out: Anti-Integrase Assay IC50 3′-proc.
[4] abbreviates: strand transfer, read-out: Anti-Integrase Assay IC50 strand tran.

On to “5′-gtggtgggtgggtgggt-3′ (GTGGTGGGTGGGTGGGT; phosphorothioate termini, further chemistry not given here) [T30177, pPT version of parent compound I100-15, 17 mer]”, for which, in the series with HIV-1SKI, the “viral cDNA 12 hours post-infection, drug added at time of infection” value was “viral cDNA was detected”. The same compound returned an inhibition of disintegration in series [1] of no more than 30%.
Regarding `Cc1cn([C@H]2C[C@H](N=[N+]=[N-])[C@@H](CO)O2)c(=O)[nH]c1=O` [AZT, 3′-azido-3′-deoxythymidine], the IC50 in series [2] (setting [3]) and in series [2] (setting [4]) was greater than 1 µM each time.
Compound “5′-gtggtgggtgggtgggt-3′ [T30177] (GTGGTGGGTGGGTGGGT; phosphorothioate termini, further chemistry not given here) [pPT version of parent compound I100-15, 17 mer]” displayed an IC50 virus-induced cytopathogenicity in the series with Punta Toro virus (Punta Toro virus) greater than 200 mg/L. For the same compound, in the series with Punta Toro virus (Punta Toro virus assay), the “MCC minimum concentration altering normal cell morphology” value was greater than 200 μg/mL. Moreover, the “increase in potency (3′-processing) with magnesium instead of manganese” value in series [2] is on record as “four to five-fold”. For the same compound, the half-maximal inhibitory concentration (IC50) (usually the point on the concentration scale where inhibition reaches its midpoint) in series [2] (setting [3]) turned out to be 0.092 µM; in series [2] (HIV-1 integrase, read-out: IC50 3′-processing), 0.055 µM; in series [2] (read-out: Enzyme IC50 3-′process) it was 0.049 µM; in series [2] (read-out: Enzyme IC50 Stran Trans), 0.079 µM; in series [2] (setting [4]), 0.046 µM.

For the origin of these results see patent US6355785B1, “Guanosine-rich oligonucleotide integrase inhibitors” (Aronex Pharmaceuticals, Inc., priority 1993, dated 2002).
